Test results as given in US9670162B2, “Mitochondrial aldehyde dehyrogenase-2 modulators and methods of use thereof” (The Board of Trustees of the Leland Stanford Junior …, priority 2013, dated 2017).
Changes are numbered by the printed parent chain.

Tests used:
[1] = target: T1, human ALDH2*2 recombinant mutant enzyme (E487K) (Homo sapiens, UniProt P05091, E504K); experiment: ALDH2 enzymatic assay (NADH at 340 nm), recombinant mutant enzyme; assay type: biochemical; set-up: key: −: no activation or inhibition; +: activation less than control 1; ++: activation similar to control 1, within 10%; +++: activation more than control 1 and less than control (compound 161); ++++: activation similar to compound 161, within 10%; conditions: activation relative to benchmarks control 1 and compound 161
T1 construct: His-tag (pTrcHis vector) (N); made in house; host or cells: E. coli BL21
T1 sequence (P05091 18-517 E504K): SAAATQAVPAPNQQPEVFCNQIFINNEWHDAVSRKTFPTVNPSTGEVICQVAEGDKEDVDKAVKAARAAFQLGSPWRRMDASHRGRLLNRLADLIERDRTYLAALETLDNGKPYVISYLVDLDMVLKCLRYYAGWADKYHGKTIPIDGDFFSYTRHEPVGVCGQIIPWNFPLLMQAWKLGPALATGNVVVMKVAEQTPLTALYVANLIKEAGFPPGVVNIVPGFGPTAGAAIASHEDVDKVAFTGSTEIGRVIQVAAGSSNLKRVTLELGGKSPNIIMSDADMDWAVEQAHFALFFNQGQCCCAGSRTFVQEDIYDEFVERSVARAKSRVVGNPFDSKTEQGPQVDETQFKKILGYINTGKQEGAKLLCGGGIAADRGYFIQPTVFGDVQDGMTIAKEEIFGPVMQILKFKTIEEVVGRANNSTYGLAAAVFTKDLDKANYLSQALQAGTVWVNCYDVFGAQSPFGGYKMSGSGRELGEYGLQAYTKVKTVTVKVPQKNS
Excerpt: (§1) ALDH2 catalyzes the oxidative reaction of substrate acetaldehyde to acetic acid using NAD^+ as a cofactor. Enzymatic activity, or catalytic rate, of aldehyde dehydrogenase (ALDH2) can be measured spectrophotometrically at UV wavelength λ340 nm by the accumulation of reduced product NADH derived from NAD^+. […] This method is well-established in the literature [e.g. D. K. Rex, W. F. Bosron, J. E. Smialek, T. K. Li, Alcohol Clin Exp Res 9, 147 (1985)].
(§2) Full-length wild type human ALDH2 cDNA was purchased from ATCC (No. MGC-1806. GenBank ID: BC002967). The 18-amino acid mitochondria transport signal sequence was removed by PCR and cloned into the NheI/HindIII sites of a His-tag vector, pTrcHis, using standard molecular cloning techniques. The human ALDH2* cDNA construct containing the Asian E487K mutation was obtained by site-directed mutagenesis to create the E487K substitution of the wild type ALDH2. Both human clones were designed to express a recombinant protein with the His-tag at the N-terminus of the protein. For the co-expression experiments of human ALDH2 wild type and ALDH2*2 heterotetramers, a wild type ALDH2 gene and a ALDH2 E487K gene were inserted separately into the two multiple cloning sites of pETDuet-1 vector. (Novagen, Calif., USA). All the vectors were transformed into BL21 E. coli host cells and subjected to 0.5 mM IPTG induction for protein expression at 30° C. Purifications of the recombinant proteins by affinity nickel columns (HisTrap, GE Healthy Science, USA) were carried out using standard protocols according to manufacturer's instructions (Novagen, USA).
(§3) Control 1 and compound 161 are used as benchmarks and the symbols have the following representation: […]

human ALDH2 wild type = target: T2, human ALDH2 wild type (Homo sapiens, UniProt P05091); experiment: ALDH2 enzymatic assay (NADH at 340 nm), recombinant wild type enzyme; assay type: biochemical; set-up: key: −: no activation or inhibition; +: activation less than control 1; ++: activation similar to control 1, within 10%; +++: activation more than control 1 and less than control (compound 161); ++++: activation similar to compound 161, within 10%; conditions: activation relative to benchmarks control 1 and compound 161
T2 construct: His-tag (pTrcHis vector) (N); made in house; host or cells: E. coli BL21
T2 sequence (P05091 18-517): T1 sequence (P05091 18-517 E504K) with K487E
Excerpt: as §1, §2, §3

SMILES	ALDH2 (mutant) [1]	ALDH2 (wild-type) (human ALDH2 wild type)
COc1ccc(CNC(=O)c2c(Cl)ccnc2SCC(C)C)cc1F [Compound 218]	+	+
CCCS(=O)(=O)c1nccc(Cl)c1C(=O)NCc1ccc(OC)c(F)c1 [Compound 221]	+	+
COc1ccc(CNC(=O)c2c(Cl)ccnc2S(=O)(=O)C(C)C)cc1F [Compound 222]	+	+
CCC(C)S(=O)(=O)c1nccc(Cl)c1C(=O)NCc1ccc(OC)c(F)c1 (stereo not drawn) [Compound 223]	+	+
COc1ccc(CNC(=O)c2c(Cl)ccnc2S(=O)(=O)CC(C)C)cc1F [Compound 224]	+	+
COc1ccc(CNC(=O)c2c(C(F)(F)F)ccnc2OCC(C)C)cc1F [Compound 226]	+	+
COc1ccc(CNC(=O)c2c(C(F)(F)F)ccnc2OC(C)C)cc1F [Compound 227]	+	+
CCC(CC)Oc1nccc(C(F)(F)F)c1C(=O)NCc1ccc(OC)c(F)c1 [Compound 228]	+	+
COc1ccc(CNC(=O)c2c(C)ccnc2OCC(C)C)cc1F [Compound 232]	+	+
COc1ccc(CNC(=O)c2c(C)ccnc2OC(C)C)cc1F [Compound 233]	+	+
CCC(CC)Oc1nccc(C)c1C(=O)NCc1ccc(OC)c(F)c1 [Compound 234]	+	+
COc1ccc(CNC(=O)c2c(Cl)cncc2OCC(C)C)cc1F [Compound 240]	++	+
O=C(NCc1ccc2c(c1)CCCO2)c1c(Cl)ccnc1OCC1CC1 [Compound 244]	+	++
O=C(NCc1ccc2c(c1)CCO2)c1c(Cl)ccnc1OCC1CC1 [Compound 245]	+++	+
COc1ccc(CNC(=O)c2c(Cl)ccnc2CCC(C)C)cc1F [Compound 250]	+	+
COc1c(F)cc(CNC(=O)c2c(Cl)ccnc2OCC(C)C)cc1F [Compound 252]	+	+
O=C(NCc1ccc(=O)[nH]c1)c1c(Cl)ccnc1OCC1CC1 [Compound 254]	+	+
O=C(NCc1ccc2occc2c1)c1c(Cl)ccnc1OCC1CC1 [Compound 257]	+	+
O=C1OCc2cc(CNC(=O)c3c(Cl)ccnc3OCC3CC3)ccc21 [Compound 258]	−	+
O=C(NCc1ccc2ncoc2c1)c1c(Cl)ccnc1OCC1CC1 [Compound 259]	+	+
O=C(NCc1ccc2ocnc2c1)c1c(Cl)ccnc1OCC1CC1 [Compound 260]	−	+

Second part, the compound after the results:

ALDH2 (mutant) [1]	ALDH2 (wild-type) (human ALDH2 wild type)	SMILES
+	+	COc1ccc(CNC(=O)c2c(Cl)ccnc2OCC2CCCN2)cc1F (stereo not drawn) [Compound 204]
+	+	COc1ccc(CNC(=O)c2c(Cl)ccnc2OCC2CCNC2)cc1F (stereo not drawn) [Compound 205]
+	++	COc1ccc(CNC(=O)c2c(Cl)ccnc2Oc2ccccc2)cc1F [Compound 206]
++	++	COc1ccc(CNC(=O)c2c(Cl)ccnc2SC)cc1F [Compound 213]
++	++	CCSc1nccc(Cl)c1C(=O)NCc1ccc(OC)c(F)c1 [Compound 214]
+++	++++	CCCSc1nccc(Cl)c1C(=O)NCc1ccc(OC)c(F)c1 [Compound 215]
+	+	COc1ccc(CNC(=O)c2c(Cl)ccnc2SC(C)C)cc1F [Compound 216]
++	+	CCC(C)Sc1nccc(Cl)c1C(=O)NCc1ccc(OC)c(F)c1 (stereo not drawn) [Compound 217]
+	+	COc1ccc(CNC(=O)c2c(Cl)ccnc2S(C)(=O)=O)cc1F [Compound 219]
+	+	CCS(=O)(=O)c1nccc(Cl)c1C(=O)NCc1ccc(OC)c(F)c1 [Compound 220]
+	+	COc1ccc(CNC(=O)c2c(C(F)(F)F)ccnc2OCC2CC2)cc1F [Compound 225]
+	+	COc1ccc(CNC(=O)c2c(C(F)(F)F)ccnc2OCC2CCC2)cc1F [Compound 229]
+	+	COc1ccc(CNC(=O)c2c(C(F)(F)F)ccnc2OCC2CCCC2)cc1F [Compound 230]
++	+	COc1ccc(CNC(=O)c2c(C)ccnc2OCC2CC2)cc1F [Compound 231]
+	+	COc1ccc(CNC(=O)c2c(C)ccnc2OCC2CCC2)cc1F [Compound 235]
+	+	COc1ccc(CNC(=O)c2c(C)ccnc2OCC2CCCC2)cc1F [Compound 236]
+	+	COc1ccc(CNC(=O)c2c(C)ccnc2OCC2CCNC2)cc1F (stereo not drawn) [Compound 237]
+	+	COc1ccc(CNC(=O)c2c(C)ccnc2OC2CCC2)cc1F [Compound 238]
+++	++	COc1ccc(CNC(=O)c2c(Cl)cncc2OCC2CC2)cc1F [Compound 239]
++	+	COc1ncc(CNC(=O)c2c(Cl)ccnc2OCC2CC2)cc1F [Compound 246]
−	−	COc1ccc(CN(C)C(=O)c2c(Cl)ccnc2OCC2CC2)cc1F [Compound 247]
−	−	O=C(NCc1ccc(O)c(F)c1)c1c(Cl)ccnc1OCC1CC1 [Compound 248]
+	+	COc1ccc(C(C)NC(=O)c2c(Cl)ccnc2OCC2CC2)cc1F (stereo not drawn) [Compound 249]
+	+	COc1ccc(CNC(=O)c2c(OC)ccnc2OCC2CC2)cc1F [Compound 251]
+	+	CS(=O)(=O)c1ccc(CNC(=O)c2c(Cl)ccnc2OCC2CC2)cc1F [Compound 253]
+	+	COc1ccc(CNC(=O)c2c(Cl)ccnc2OCC2CC2)cn1 [Compound 255]
+	+	COc1ccc(CNC(=O)c2c(Cl)ccnc2OCC2CC2)cc1C [Compound 256]
